These results are taken from patent EP4813463A2, “TYK2 INHIBITORS AND COMPOSITIONS AND METHODS THEREOF” (Lynk Pharmaceuticals Co. Ltd., priority 2023, dated 2024).

The nature of series [1]: Microsomal metabolic stability assay. To be noted: human, liver microsomes, pH 7.4, 0.5 mg/mL microsomal protein, 1 µM test article, 2 mM NADPH. It is filed as in vitro ADME. A digest of the protocol:
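Test or control compound (1 µM) incubated with microsomes (0.5 mg/mL protein) in 100 mM potassium phosphate pH 7.4, 1.0 mM EDTA at 37°C, started with NADPH regenerating system (2 mM NADPH). Sampled at 0, 5, 15, 30, 45 min, acetonitrile-quenched, LC/MS/MS. T1/2 from ln %remaining vs time slope; CLint = 0.693/T1/2 per mg protein/mL.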
In general terms: Microsomes from liver hold many membrane-bound enzymes, among them those of drug oxidation.

A short description of series [2]: Caco-2 cell permeability. In kind it is in vitro ADME. The conditions noted are these: human, Caco-2, 10.0 µM, no p-gp inhibitor; for Papp A→B at 90 min, 10 µM: A to B; for Papp B→A at 90 min, 10 µM: B to A; for efflux ratio at 90 min, 10 µM: read-out: Efflux Ratio: Papp(B-A)/Papp(A-B). As for the experimental part:
Compounds permeability was evaluated using Caco-2 cell lines. HBSS buffer was used as transfer buffer. Appropriate dosing and receiver solutions were applied to the donor and receiver chambers to initiate the transport assay in apical to basolateral (A to B) or basolateral to apical (B to A) directions. Compounds were tested at 10.0 µM in the absence of p-gp inhibitor bidirectionally in duplicates. After incubation at 37°C for 90 mins, donor and receiver samples were analyzed by LC-MS/MS. The intestinal absorption potential was assessed using Papp value and efflux ratio.
Background: Caco-2 cells form a polarised layer with tight junctions and transporters.

Series [3] concerns Ba/F3-FL-TYK2-P760L cells. As to the kind of experiment: Anti-proliferative assay in engineered Ba/F3 cells (Cell-Titer Glo, 72 h). In kind it is cell-based. The conditions noted are these: Mus musculus, BaF3, 72 h, 72 h compound treatment, concentration that causes 50% growth inhibition, read-out: Baf3-FL-T2P760L. The method in brief: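 Ba/F3 cells carrying Tel-dimerization/JAK kinase fusion, IL-3-independent, in RPMI-1640 + 10% FBS; 9-point 3-fold dilutions from 20 µM (0.1% DMSO) added after 24 h, 72 h at 37 °C. Viability by Cell-Titer Glo ATP luminescence; % inhibition versus DMSO cells, blank-corrected, giving IC50.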

In series [4] the target is T1, TYK2-JH2 domain (Homo sapiens, UniProt P29597).
T1 construct: JAK1-JH2 domain or TYK2-JH2 domain enzyme in assay buffer
As to the kind of experiment: Binding activity test for JH2 domain of TYK2 (Tb-antibody/tracer FRET). The conditions noted are these: for IC50: JH2 domain enzyme, 60 min at 25°C, then 4°C overnight, read-out: TYK2 JH2 Binding IC50; for JAK1/TYK2 selectivity: ratio of JAK1 JH2 to TYK2 JH2 binding IC50. The method in brief:
(§1)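 Competitive TR-FRET binding: compounds dispensed as an 11-point 3-fold dilution series, then Tb-labelled antibody and tracer added to the JH2 protein system. Incubated at 25°C, then overnight at 4°C; FRET signal read on Envision and IC50 (nM) derived.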

The target in series [5] is T2, JAK1-JH2 domain (Homo sapiens, UniProt P23458).
T2 construct: JAK1-JH2 domain or TYK2-JH2 domain enzyme in assay buffer
The series is described as follows: Binding activity test for JH2 domain of JAK1 (Tb-antibody/tracer FRET). To be noted: JH2 domain enzyme; 60 min at 25°C, then 4°C overnight; read-out: JAK1 JH2 Binding IC50. A digest of the protocol: as §1

The nature of series [6]: Kinetic solubility. It is filed as physicochemical. The conditions noted are these: phosphate buffer, pH 7.4, aqueous buffer, kinetic from dmso stock, 100 mM pH 7.4 phosphate buffer, 1% DMSO, room temperature, read-out: Kinetics Solubility_PBS7.4. A digest of the protocol:
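Compounds diluted from 10 mM/5 mM DMSO stocks into 100 mM phosphate buffer pH 7.4 (1% DMSO final), shaken 2 h at room temperature, then centrifuged. Dissolved compound in supernatant quantified by LC-MS/MS against a standard curve.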

A short description of series [7]: Brain pharmacokinetic studies in rats. It is filed as in vivo, Sprague-Dawley rats. How it is done: Pharmacokinetic profiles of test articles were evaluated in fasted Sprague-Dawley rats. Different kinds of formulations were designed to ensure test articles fully dissolved and wouldn't precipitate in 1:10 SGF or FaSSIF dilution. Typically, Rats were dosed with 3 mg/kg and 5 mg/kg by intravenous injection and oral gavage, respectively. The animal was restrained manually at the designated time points, approximately 150 µL of blood sample was collected via jugular vein for serial bleeding into K2EDTA tubes. The blood samples were maintained in wet ice first and centrifuged to obtain plasma (2000g, 4°C, 5 min) within 30 minutes post sampling. Anesthetizing the rat with the Isoflurane vaporizer to 2%~3% and place its back on the operation table. Spread the animal limbs and pin the limbs on the operation table. Make a cut along the sternum about 4cm long, low enough to expose the sternum's end. Expose the heart and use a 25-gauge needle connected with a 20 mL syringe filled with 20 mL of cold saline to pierce the left ventricle. Maintain the placement of the needle, and slowly push the syringe plunger to wash the brain with saline. The perfusion will be finished within about 2 min and then take the brain out of the body carefully without damaging the tissue. Dry the tissue on filtrate paper, which should be placed on ice, and then weigh the brain tissue and store at -70 °C and analyzed by LC/MS/MS for quantification. PK parameter values, including, but not necessarily limited to, the maximum plasma concentrations (Cmax), and the area under the plasma concentration vs. time curve (AUC) from time zero to 24-hour (AUC0-24h) were determined using WinNonlin program. Table 13. Systemic Pharmacokinetic Parameters in Sprague-Dawley Rats

In series [8] the test system is pSTAT1. The series is described as follows: Phosphorylation inhibition of STAT in human whole blood (IFN-alpha stimulated, flow cytometry). In kind it is cell-based. To be noted: T-cell, 20 min, IFN-alpha stimulation 20 mins, CD3 T cells, read-out: pSTAT1 inhibition in hWB (IC50). A digest of the protocol: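 Fresh human whole blood stimulated 20 min with human universal type I IFN-alpha, then fixed, permeabilised and stained for CD3 and pSTAT1 (Y701). pSTAT1 in T cells read by flow cytometry; IC50 from 4-parameter logistic fit.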
On the technique in general: A flow cytometer gives signals particle by particle.

Series [9] has as its system TYK2 pathway. As to the kind of experiment: IFN-γ release in NK92 cells stimulated by IL-12 (ELISA). It is filed as cell-based. To be noted: IL-12 2.5ng/mL stimulation 15hrs, IFN-γ in supernatant by ELISA. As for the experimental part: IFN-γ Release in NK92 Cells Stimulated by IL-12
Purpose: To evaluate the inhibition activity of TYK2 inhibitors in NK92 cells on TYK2 pathway through ELISA method.
Procedure: 1) Seeding NK92 cells into 96-well plate, cell density is 1.5E5 cells/well, 100uL/well; 2)Add prepared test articles into indicated wells, 50uL/well, and continue incubate for 1h, at 37°C; 3) After compound treatment, add 50uL/well IL-12 into indicated wells, final concentration of IL-12 is 2.5ng/mL; 4)Incubate cytokine stimulated cells at 37°C for another 15hrs in CO2 incubator; 5) After cytokine stimulation, transfer culture supernatant into a new plate and centrifuge for 5min at 350x g, and detect IFN-γ concentration in the supernatant with ELISA kit; 6) Data analysis with GrapdPad Prism6.0 software. Table 5. IC50 Values of Exemplary Compounds on TYK2 Pathway

≈ marks a conversion by molar mass, not a printed value. Like-named read-outs stand apart in the source and are kept apart here.

T1 sequence (P29597 589-875 limits assumed): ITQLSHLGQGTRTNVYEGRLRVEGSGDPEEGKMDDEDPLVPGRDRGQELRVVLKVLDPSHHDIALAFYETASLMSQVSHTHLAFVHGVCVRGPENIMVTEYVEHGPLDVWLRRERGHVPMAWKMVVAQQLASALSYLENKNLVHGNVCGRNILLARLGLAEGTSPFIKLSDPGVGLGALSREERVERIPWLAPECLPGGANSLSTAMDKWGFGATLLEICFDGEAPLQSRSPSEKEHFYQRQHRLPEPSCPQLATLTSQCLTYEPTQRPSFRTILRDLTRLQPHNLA
T2 sequence (P23458 583-855 limits assumed): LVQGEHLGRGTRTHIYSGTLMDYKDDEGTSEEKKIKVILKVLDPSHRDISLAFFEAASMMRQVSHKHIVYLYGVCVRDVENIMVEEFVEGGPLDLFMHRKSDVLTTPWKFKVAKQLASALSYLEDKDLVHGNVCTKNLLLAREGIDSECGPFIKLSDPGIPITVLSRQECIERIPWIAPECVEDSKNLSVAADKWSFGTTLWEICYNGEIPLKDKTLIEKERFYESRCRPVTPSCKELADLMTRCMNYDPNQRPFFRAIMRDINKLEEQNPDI

Broadly, the Papp A→B is how fast a substance crosses the layer from the apical side. Higher therefore signals fast passage. The term Papp B→A denotes how fast a substance crosses the layer from the basolateral side. Consider `[2H]C([2H])([2H])NC(=O)c1cnc(NC(=O)C2CC2)cc1Nc1cnn2ccc(C(C)O)c(OC)c12` (stereo not shown) [Example 23, 6-(Cyclopropanecarboxamido)-4-((5-(1-hydroxyethyl)-4-methoxypyrazolo[1,5-a]pyridin-3-yl)amino)-N-(methyl-d3)nicotinamide], for which the microsomal CLint at 1 µM in [1] (read-out: Human LM Clint) came out at 0.17 µL/min/mg. Also, the half-life at 1 µM in series [1] (read-out: Human LM T1/2) is 132 h. In addition, in series [2], the Papp A→B at 90 min, 10 µM was found to be 0.46 ×10⁻⁶ cm/s; the Papp B→A at 90 min, 10 µM amounted to 37.6 ×10⁻⁶ cm/s; the efflux ratio at 90 min, 10 µM was 82.7. The IC50 in series [3] turned out to be 166 nM. For the same molecule, in series [4], the IC50 is 0.185 nM and the JAK1/TYK2 selectivity came out at 72.7. Moreover, the IC50 in series [5] came out at 13.5 nM.
Regarding `[2H]C([2H])([2H])NC(=O)c1cnc(NC(=O)C2CC2)nc1Nc1cnn2ccc([C@H](O)C(F)(F)F)c(OC)c12` [Example 33, (S)-2-(cyclopropanecarboxamido)-4-((4-methoxy-5-(2,2,2-trifluoro-1-hydroxyethyl)pyrazolo[1,5-a]pyridin-3-yl)amino)-N-(methyl-d3)pyrimidine-5-carboxamide], in series [2], the Papp A→B at 90 min, 10 µM amounted to 0.39 ×10⁻⁶ cm/s; the Papp B→A at 90 min, 10 µM was 46.5 ×10⁻⁶ cm/s; the efflux ratio at 90 min, 10 µM worked out at 121. Besides, the IC50 in series [3] was 16 nM. Also, in [4], the IC50 is 0.082 nM and the JAK1/TYK2 selectivity was 418.3. In [5], the IC50 was 34.3 nM. Moreover, in series [6], the solubility kinetic at 2 h stood at 59.4 µM (≈ 28.6 µg/mL).
As to `COC(=O)c1cnc(NC(=O)C2CC2)cc1Nc1cnn2ccc([C@H](OC)C(F)(F)F)c(OC)c12` [Example 42, Methyl (S)-6-(cyclopropanecarboxamido)-4-((4-methoxy-5-(2,2,2-trifluoro-1-methoxyethyl)pyrazolo[1,5-a]pyridin-3-yl)amino)nicotinate], the half-life in series [7] (Sprague-Dawley, rat, brain, rats, iv, 3 mg/kg, solution) was 15 min; in series [7] (Sprague-Dawley, rat, systemic (plasma), rats, iv, 3 mg/kg, solution), 20.4 min. The Kp in series [7] (Sprague-Dawley, rat, brain, rats, iv, 3 mg/kg, solution, read-out: Brain AUC/Systemic AUC) worked out at 1.99. In addition, the AUC in series [7] (Sprague-Dawley, rat, systemic (plasma), rats, iv, 3 mg/kg, solution, read-out: AUC) is 646 ng·h/mL; in series [7] (brain, rats, iv, 3 mg/kg, solution) it was 1286 ng·h/g. Moreover, in [7] (result in words), the “brain exposure in Rats” value is “good brain exposure”. The IC50 in series [3] amounted to 104 nM; in series [4], 0.202 nM; in series [5], 79 nM. Besides, the JAK1/TYK2 selectivity in series [4] is on record as 391.2.
Turning to `[2H]C([2H])([2H])NC(=O)c1cnc(NC(=O)C2CC2)cc1Nc1cnn2ccc([C@H](OC(C)=O)C(F)(F)F)c(OC)c12` [Example 43, (S)-1-(3-((2-(cyclopropanecarboxamido)-5-((methyl-d3)carbamoyl)pyridin-4-yl)amino)-4-methoxypyrazolo[1,5-a]pyridin-5-yl)-2,2,2-trifluoroethyl acetate], the IC50 in series [8] is 174 nM; in series [9], 22.6 nM; in [3], 20.6 nM; in series [4], 0.175 nM; in series [5], 71.3 nM. Further, the JAK1/TYK2 selectivity in series [4] is listed as 407.2. The solubility kinetic at 2 h in series [6] stood at 33.3 µM.
`CNC(=O)c1cnc(NC(=O)C2CC2)cc1Nc1nn(C)c2cccc(OC)c12` [Example 100, 6-(Cyclopropanecarboxamido)-4-((4-methoxy-1-methyl-1H-indazol-3-yl)amino)-N-methylnicotinamide]: the IC50 in series [9] amounted to 86.8 nM; in series [3] it was 505 nM; in series [4], 0.97 nM; in [5] it was 113 nM. In [4], the JAK1/TYK2 selectivity was found to be 116.4.
`CCC(=O)c1cnc(NC(=O)C2CC2)cc1Nc1ccn2nccc2c1OC` [Example 195, N-[4-[(4-Methoxypyrazolo[1,5-a]pyridin-5-yl)amino]-5-propanoyl-2-pyridyl]cyclopropanecarboxamide, reference compound]: the IC50 is above 5000 nM in series [8]; 1500 nM in series [9]; 329 nM in series [3]; 2.96 nM in [4]; 67.1 nM in series [5]. The JAK1/TYK2 selectivity in [4] turned out to be 22.68.
Consider `CCC(=O)c1cnc(NC(=O)C2CC2)cc1Nc1ccc2cn[nH]c2c1OC` [Example 196, N-(4-((7-Methoxy-1H-indazol-6-yl)amino)-5-propionylpyridin-2-yl)cyclopropanecarboxamide, reference compound], for which the IC50 in series [8] is above 10000 nM; in series [9], 923 nM; in series [4], 3.93 nM; in series [5], 31.6 nM. Further, the JAK1/TYK2 selectivity in series [4] was determined as 8.04.
For the molecule `CCC(=O)c1cnc(NC(=O)C2CC2)cc1Nc1ccc2[nH]cnc2c1OC` [Example 197, N-[4-[(4-Methoxy-1H-benzimidazol-5-yl)amino]-5-propanoyl-2-pyridyl] cyclopropanecarboxamide, reference compound], the IC50 in series [9] turned out to be 515 nM; in series [3] it was 426 nM; in series [4], 2.72 nM; in series [5], 17.4 nM. Besides, the JAK1/TYK2 selectivity in series [4] stood at 6.41.
